The values below come from patent US20200315998A1, “COMPOSITION FOR IMPROVING INTESTINAL BARRIER FUNCTION” (SUNTORY HOLDINGS LIMITED, priority 2017, published 2020).

The assay deals with Caco-2 cells. Nature of the assay: Evaluation of intestinal barrier function improvement: TEER reduction suppression in Caco-2 monolayer with inflammatory cytokines (TNFα, IL-1β, IFNγ). As to conditions: for Synergistic effect (M.V./T.V.) / TEER reduction suppression ratio (%) +gallic acid (actual measurement value) (M.V.) / Synergistic effect (M.V./T/V/): combined use of phenolic compound and gallic acid; for TEER reduction suppression ratio (%) +gallic acid (theoretical value) (T.V.): sum of ratios of phenolic compound alone and gallic acid alone; for Relative value of TEER reduction suppression ratio: sample alone 1 μM; for Synergistic effect (relative value of actual measurement value / relative value of theoretical value): combined use of the phenolic compound with gallic acid, 1 μM each (Table 1). The format is cell-based, human. The text has this:
The intestinal barrier function improvement effect is indicated by, for example, increase in the electrical resistance value (transepithelial electric resistance: TEER) of the intestinal epithelial cells or suppression of the decrease in the TEER. A substance increasing the TEER or suppressing the decrease thereof has the action of normalizing or strengthening the tight junction in the intestinal epithelial cells. The intestinal barrier function improvement effect is also indicated by decrease in the amount of a substance permeating from the intestinal side of the intestinal epithelial cells to the inside of the body. The person skilled in the art can select a specific method of evaluating the intestinal barrier function improvement effect depending on the purpose. For exarple, as shown in Examples to be described later, a method for measuring TEER using an intestinal permeation model using human intestinal epithelial cells (Caco-2 cells) can be used. Specifically, inflammatory cytokine (TNFα, IL-1β, IFNγ and the like) is added into Caco-2 monolayer cultured cells to produce a state where the intestinal barrier function can be collapsed in human. If the addition of a test substance suppresses the decrease in the TEER as compared with the case where the substance is not added, the test substance can be evaluated to have the intestinal barrier function improvement effect.
Caco-2 cells were cultured for three weeks at 37° C. in Transwell (manufactured by Millicell Corporation) using DMEM (Dulbecco's modified Eagle's medium). A medium was removed from a plate of cultured Caco-2 cells, and the well was washed 3 times with serum-free DMEM. The well was filled with the medium. Then, the transepithelial electrical resistance (TEER) of Caco-2 monolayer cells was measured by Millicell-ERS (manufactured by Millipore Corporation). Cells (TEER≥1000 Ω·cm^2) determined that a sufficient tight junction was formed were selected, and used for the next screening. Then, to test solutions (media) on both apical and basolateral membrane sides, a sample, TNFα (40 ng/mL), IL-1β (20 ng/mL), and IFNγ (10 ng/mL) were added, followed by cultivating for 48 hours. The sample was dissolved in dimethyl sulfoxide (DMSO), and the solution was then added to the test solutions. In this case, a well to which inflammatory cytokine (TNFα, IL-1β, and IFNγ) and the sample were not added was provided as normal. A well to which inflammatory cytokine was added and the sample was not added was provided as control. After the cultivation, TEER was measured again, to evaluate whether the sample suppressed the reduction (decrease) of TEER due to the inflammatory cytokine.
The TEER reduction suppression ratio (%) due to the sample was determined according to the following formula from the TEER values of the well to which the sample was added, normal, and control.
(Calculating formula of TEER reduction suppression ratio) TEER reduction suppression ratio (%)=100×((TEER of well to which sample is added)−(TEER of control))/((TEER of normal)−(TEER of control))
In this evaluation system, as the TEER reduction suppression ratio (%) is higher, an intestinal barrier function improvement effect is higher.

For the compound eugeniflorin D2, where the note is “each 1 μM”, the “Synergistic effect (M.V./T.V.)” value is 1.3 and the “TEER reduction suppression ratio (%) +gallic acid (actual measurement value) (M.V.)” value is listed as 102%. Further, under “1 μM each”, the “TEER reduction suppression ratio (%) +gallic acid (theoretical value) (T.V.)” value is 80%.
As for `O=C(O[C@@H]1COC(=O)c2cc(O)c(O)c(O)c2-c2c(cc(O)c(O)c2O)C(=O)O[C@H]1[C@@H]1OC(=O)c2cc(O)c(O)c(O)c2-c2c(O)c(O)c(O)c3c2C(=O)O[C@H]1[C@@H]3O)c1cc(O)c(O)c(O)c1` [Casuarinin, casuarinin], for the setting “each 1 μM”, the “Synergistic effect (M.V./T.V.)” value came out at 1.4 and the “TEER reduction suppression ratio (%) +gallic acid (actual measurement value) (M.V.)” value is 81%.
In the same order, the values of `O=C(O[C@@H]1O[C@@H]2COC(=O)c3cc(O)c(O)c(O)c3-c3c(cc(O)c(O)c3O)C(=O)O[C@H]([C@H]1O)[C@@H]2O)c1cc(O)c(O)c(O)c1` [Corilagin, corilagin] are 3.4 and 76%.
As for `O=C(OC1C(OC(=O)c2cc(O)c(O)c(O)c2)[C@H](O)OC2COC(=O)c3cc(O)c(O)c(O)c3-c3c(cc(O)c(O)c3O)C(=O)O[C@H]21)c1cc(O)c(O)c(O)c1` (stereo partly shown) [Tellimagrandin I, tellimagrandin I], where the note is “each 1 μM”, the “Synergistic effect (M.V./T.V.)” value is on record as 1.6 and the “TEER reduction suppression ratio (%) +gallic acid (actual measurement value) (M.V.)” value is listed as 92%.
As for `Oc1cc(O)c2c(c1)O[C@H](c1ccc(O)c(O)c1)[C@H](O)C2` [Epicatechin (EC), epicatechin], the “Synergistic effect (relative value of actual measurement value / relative value of theoretical value)” value is on record as 1.7. Moreover, the “Relative value of TEER reduction suppression ratio” value (Evaluation 2, epicatechin (EC) set to 1.0) is reported as 1.0.
Turning to `COc1cc(-c2[o+]c3cc(O)cc(O)c3cc2O)cc(O)c1O` [Petunidin chloride, petunidin chloride], under “each 10 μM”, the “Synergistic effect (M.V./T/V/)” value amounted to 1.9 and the “TEER reduction suppression ratio (%) +gallic acid (actual measurement value) (M.V.)” value was 70%.
With `Oc1cc(O)c2c(c1)O[C@H](c1ccc(O)c(O)c1)[C@H](O)[C@H]2c1c(O)cc(O)c2c1O[C@H](c1ccc(O)c(O)c1)[C@@H](O)C2` [Procyanidin B1, procyanidin B1], for the setting “each 10 μM”, the “Synergistic effect (M.V./T/V/)” value stood at 2.4 and the “TEER reduction suppression ratio (%) +gallic acid (actual measurement value) (M.V.)” value came to 74%. Moreover, the “TEER reduction suppression ratio (%) +gallic acid (theoretical value) (T.V.)” value (10 μM each) is reported as 31%.
As to `O=C(OC[C@H]1O[C@@H](OC(=O)c2cc(O)c(O)c(O)c2)[C@H](OC(=O)c2cc(O)c(O)c(O)c2)[C@@H](OC(=O)c2cc(O)c(O)c(O)c2)[C@@H]1O)c1cc(O)c(O)c(O)c1` [1,2,3,6-tetra-O-galloyl-β-D-glucose], for the setting “each 1 μM”, the “Synergistic effect (M.V./T.V.)” value is reported as 1.5 and the “TEER reduction suppression ratio (%) +gallic acid (actual measurement value) (M.V.)” value is on record as 81%.
In the same order, the values of `O=C1O[C@@H]2C3COC(=O)c4cc(O)c(O)c(O)c4-c4c(cc(O)c(O)c4O)C(=O)O[C@H]2C(OC(=O)c2cc(O)c(O)c4c2C2C1=CC(=O)C(O)(O)[C@@]2(O)O4)[C@H](OC(=O)c1cc(O)c(O)c(O)c1)O3` (stereo partly shown) [Geraniin, geraniin] are 2.4 and 119%.
For `O=C1OCC2O[C@@H](O)C3OC(=O)c4cc(O)c(O)c(O)c4-c4c(cc(O)c(O)c4O)C(=O)OC3[C@@H]2OC(=O)c2cc(O)c(O)c(O)c2-c2c1cc(O)c(O)c2O` (stereo partly shown) [Pedunculagin, pedunculagin] the same measures were 1.7 and 90%.
As for `Oc1cc(O)c2c(c1)O[C@H](c1ccc(O)c(O)c1)[C@H](O)[C@H]2c1c(O)cc(O)c2c1O[C@H](c1ccc(O)c(O)c1)[C@H](O)C2` [Procyanidin B2, procyanidin B2], for the setting “each 10 μM”, the “Synergistic effect (M.V./T/V/)” value worked out at 1.5 and the “TEER reduction suppression ratio (%) +gallic acid (actual measurement value) (M.V.)” value came out at 76%. Moreover, the “TEER reduction suppression ratio (%) +gallic acid (theoretical value) (T.V.)” value (10 μM each) was found to be 51%.
`O=C(OC[C@H]1O[C@@H](OC(=O)c2cc(O)c(O)c(O)c2)[C@H](OC(=O)c2cc(O)c(O)c(O)c2)[C@@H](OC(=O)c2cc(O)c(O)c(O)c2)[C@@H]1OC(=O)c1cc(O)c(O)c(O)c1)c1cc(O)c(O)c(O)c1` [1,2,3,4,6-penta-O-galloyl-β-D-glucose]: for the setting “each 1 μM”, the “Synergistic effect (M.V./T.V.)” value came to 1.4 and the “TEER reduction suppression ratio (%) +gallic acid (actual measurement value) (M.V.)” value is on record as 91%.
In the case of `O=c1c(O[C@@H]2O[C@H](CO)[C@@H](O)[C@H](O)[C@H]2O)c(-c2ccc(O)c(O)c2)oc2cc(O)cc(O)c12` [Quercetin-3-O-glucopyranoside, quercetin-3-O-glucopyranoside], under “each 10 μM”, the “Synergistic effect (M.V./T/V/)” value is reported as 1.5 and the “TEER reduction suppression ratio (%) +gallic acid (actual measurement value) (M.V.)” value is 47%.
Turning to `O=C(OC[C@H]1O[C@@H](OC(=O)c2cc(O)c(O)c(O)c2)[C@H](OC(=O)c2cc(O)c(O)c(O)c2)[C@@H](O)[C@@H]1OC(=O)c1cc(O)c(O)c(O)c1)c1cc(O)c(O)c(O)c1` [1,2,4,6-tetra-O-galloyl-β-D-glucose], for the setting “each 1 μM”, the “Synergistic effect (M.V./T.V.)” value came to 1.4 and the “TEER reduction suppression ratio (%) +gallic acid (actual measurement value) (M.V.)” value turned out to be 56%.
Turning to `O=c1c(-c2ccc(O)cc2)coc2cc(O)ccc12` [Daidzein, daidzein], for the setting “each 10 μM”, the “Synergistic effect (M.V./T/V/)” value is 1.8 and the “TEER reduction suppression ratio (%) +gallic acid (actual measurement value) (M.V.)” value came out at 50%.
For the compound catechin [Catechin (CA)], the “Synergistic effect (relative value of actual measurement value / relative value of theoretical value)” value worked out at 2.0. The “Relative value of TEER reduction suppression ratio” value (Evaluation 1, catechin (CA) set to 1.0) is given as 1.0.
As for `O=c1c(O)cc([C@H]2Oc3cc(O)cc(O)c3C[C@H]2O)cc2c([C@H]3Oc4cc(O)cc(O)c4C[C@H]3O)cc(O)c(O)c12` [Theaflavin, theaflavin], where the note is “each 10 μM”, the “Synergistic effect (M.V./T/V/)” value is recorded as 1.6 and the “TEER reduction suppression ratio (%) +gallic acid (actual measurement value) (M.V.)” value is on record as 98%.
For `O=C(O)/C=C/c1ccccc1O` [2-Coumaric acid, 2-coumaric acid] the same measures were 3.0 and 46%.
As for stenophyllanin A, under “each 1 μM”, the “Synergistic effect (M.V./T.V.)” value is on record as 1.7 and the “TEER reduction suppression ratio (%) +gallic acid (actual measurement value) (M.V.)” value is given as 95%. For the same compound, the “TEER reduction suppression ratio (%) +gallic acid (theoretical value) (T.V.)” value (1 μM each) was determined as 56%.
Consider `O=c1cc(-c2ccc(O)cc2)oc2cc(O)cc(O)c12` [Apigenin, apigenin], for which, for the setting “each 10 μM”, the “Synergistic effect (M.V./T/V/)” value amounted to 4.1 and the “TEER reduction suppression ratio (%) +gallic acid (actual measurement value) (M.V.)” value was 51%.
For `O=C1c2c(O)cc(O)cc2O[C@H](c2ccc(O)c(O)c2)[C@H]1O` [Taxifolin, taxifolin] the same measures were 2.0 and 59%.
Take `O=C(OC[C@H]1O[C@@H](OC(=O)c2cc(O)c(O)c(O)c2)[C@H](O)[C@@H](O)[C@@H]1OC(=O)c1cc(O)c(O)c(O)c1)c1cc(O)c(O)c(O)c1` [1,4,6-tri-O-galloyl-β-D-glucose]: for the setting “each 1 μM”, the “Synergistic effect (M.V./T.V.)” value amounted to 1.7 and the “TEER reduction suppression ratio (%) +gallic acid (actual measurement value) (M.V.)” value amounted to 40%.
On to `O=C(O)c1cc(O)c(O)c(O)c1Oc1cc2c(c(O)c1O)-c1c(cc(O)c(O)c1O)C(=O)O[C@@H]1C(COC2=O)O[C@@H](O)C2OC(=O)c3cc(O)c(O)c(O)c3-c3c(cc(O)c(O)c3O)C(=O)OC21` (stereo partly shown) [Praecoxin A, praecoxin A], for which, under “each 1 μM”, the “Synergistic effect (M.V./T.V.)” value was 1.4 and the “TEER reduction suppression ratio (%) +gallic acid (actual measurement value) (M.V.)” value amounted to 104%.
For the compound `O=c1c(O)c(-c2ccc(O)cc2)oc2cc(O)cc(O)c12` [Kaempferol, kaempferol], under “each 10 μM”, the “Synergistic effect (M.V./T/V/)” value amounted to 2.5 and the “TEER reduction suppression ratio (%) +gallic acid (actual measurement value) (M.V.)” value is 43%.
Take `O=C(O[C@@H]1O[C@H](CO)[C@@H](O)[C@H](O)[C@H]1O)c1cc(O)c(O)c(O)c1` [β-glucogallin]: for the setting “each 1 μM”, the “Synergistic effect (M.V./T.V.)” value is given as 2.4 and the “TEER reduction suppression ratio (%) +gallic acid (actual measurement value) (M.V.)” value was 48%.
With `O=C(O)/C=C/c1cccc(O)c1` [3-Coumaric acid, 3-coumaric acid], for the setting “each 10 μM”, the “Synergistic effect (M.V./T/V/)” value worked out at 1.2 and the “TEER reduction suppression ratio (%) +gallic acid (actual measurement value) (M.V.)” value worked out at 48%.
In the same order, the values of `O=C1C[C@@H](c2ccc(O)cc2)Oc2cc(O)cc(O)c21` [Naringenin, naringenin] are 2.0 and 61%.
